Calls of active or inactive are those of the source.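 How the source made its calls: active means Compounds that kill half the cells at a concentration of 5 micromolar or below, from the fitted or estimated CC50; inactive means CC50 above 5 micromolar.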

This test relates to Jurkat E6.1 viability, ATP luminescence, 48 h. In words: Jurkat E6.1 cell cytotoxicity, CC50 determination, dose response, cytotoxicity control, ATP luminescence, 48 h, 60K MLSMR (AID 464).
As usually defined, the CC50 is the concentration at which the toxic effect on the cells reaches its halfway point. Turning to `COc1ccc(OC)c(NS(=O)(=O)c2ccc(SC)cc2)c1`, the CC50 was 3.29 µM.

`CC1=CC(C)(C)Nc2ccc(OC(=O)c3ccco3)cc21`: the CC50 is 4.78 µM.

In the case of `COc1cccc(C2=CC(c3cc(OC)ccc3OC)n3nnnc3N2)c1` (configuration not stated), the CC50 was 11.7 µM (inactive).

In the case of `CCOC(=O)C1CCCN(C(=O)c2cc3c(-c4cccc(OC)c4)nn(C)c3s2)C1` (configuration not stated), the CC50 is 9.76 µM (inactive).

Turning to `COC(=O)c1ccc(Oc2cc(C)nc(SC)n2)cc1`, the CC50 was 1.68 µM.

Take `CC(=O)c1sc(NC(=O)C2(F)C(F)(F)C(F)(F)C(F)(F)C(F)(F)C2(F)F)nc1C`: the CC50 was > 13 µM (inactive).

With `COc1ccc(NS(=O)(=O)c2cc(OC)ccc2NC(=O)c2cc(C)oc2C)cc1`, the CC50 was 2.25 µM.

In the case of `CCOC(=O)c1[nH]c(C)c(C(=O)Nc2cccc(Cl)c2C)c1C`, the half-maximal cytotoxic concentration (CC50) is 3.8 µM.

`COc1ccccc1C1C=C(c2ccccc2)Nc2nnnn21` (configuration not stated): the CC50 is > 13 µM (inactive).

With `CC(=O)Nc1ccc(S(=O)(=O)n2cnc3cc(C)c(C)cc32)cc1`, the CC50 was 24.8 µM (inactive).

In the case of `Oc1cccc2ccc(Nc3ccccn3)nc12`, the 50% cytotoxic concentration (CC50) was 1.97 µM.

Turning to `COc1ccc(S(=O)(=O)Cc2ccc(C(=O)N3CCN(c4cccc(C)c4)C(C)C3)o2)cc1` (configuration not stated), the CC50 is 1.6 µM.

As to `CCOC(=O)c1c(-c2ccc(C)cc2C)csc1NC(=O)CSc1nnnn1C`, the CC50 was 35 µM (inactive).

For `CCOc1ccc2nc(-c3ccccc3)[nH]c2c1`, the CC50 is 3.01 µM.

For `CN(C)c1nc(N)nc(CSc2nnnn2-c2cccc3ccccc23)n1`, the CC50 is 6.97 µM (inactive).

In the case of `CCN(Cc1ccncc1)S(=O)(=O)c1ccc(C(C)=O)cc1`, the CC50 is 9.44 µM (inactive).

As for `COc1cc2c(cc1OC)CN(C(=O)c1cc3ccccc3oc1=O)CC2`, the CC50 was 5.04 µM (inactive).

Take `COc1ccccc1-c1cc(C(=O)Nc2cc(C)nn2-c2ccccc2)no1`: the CC50 was 6.14 µM (inactive).

As to `Oc1c(CN2CCOCC2)cc(COCc2ccccc2)c2cccnc12`, the CC50 is 2.65 µM.

Consider `COc1ccc(C(=O)C(CN2CCOCC2)c2ccccc2)cc1F` (configuration not stated), for which the CC50 is 5.09 µM (inactive).

As for `COc1ccccc1S(=O)(=O)Cc1ccc(C(=O)N2CCN(c3cccc(Cl)c3)CC2)o1`, the CC50 was 3.75 µM.

On to `Cc1cc(C)nc(NC(=O)Nc2ccccc2C(F)(F)F)n1`, for which the CC50 is > 4.4 µM (inactive).

`Cc1cccc(N2CCN(C(=O)c3ccncc3)CC2)c1C`: the CC50 was 2.78 µM.

For `CCN(CC)c1ccc(-c2nn3c(-c4n[nH]c5c4CCC5)nnc3s2)cc1`, the CC50 is 0.895 µM.

On to `O=c1c2cc3ccccc3n2cnn1Cc1ccccc1F`, for which the CC50 was 16.4 µM (inactive).

Turning to `COc1ccccc1N1CCN(C(=O)CSc2nnc3n2C(C)(C)Cc2ccccc2-3)CC1`, the 50% cytotoxic concentration (CC50) is 4.67 µM.

Take `Cc1nc2ccccc2n1CC(=O)NCc1ccccc1`: the CC50 was 5.34 µM (inactive).

For `COc1ccc(NC(=O)c2cc(-c3ccccc3OC)on2)cc1`, the CC50 is 1.85 µM.

With `COc1ccc(S(=O)(=O)Nc2cc(Cl)ccc2OC)cc1`, the CC50 is 1.01 µM.

Turning to `CCCCOc1ccccc1NC(=O)Cn1c(-c2nonc2N)nc2ccccc21`, the CC50 was 0.733 µM.

Consider `Cc1cc(C)nc(SCC(=O)Nc2ccc(N3CCOCC3)c(Cl)c2)n1`, for which the CC50 is 5.6 µM (inactive).

`CCOC(=O)N1CCN(C(=O)c2cc(-c3ccc(OCC)cc3)nc3ccccc23)CC1`: the CC50 was 1.69 µM.

Consider `COc1cccc(C2=CC(c3cccc(OC)c3OC)n3nnnc3N2)c1` (configuration not stated), for which the CC50 was 16.5 µM (inactive).

In the case of `Cc1cc(C)n(-c2nnc3n2N=C(c2c[nH]c4ccccc24)CS3)n1`, the CC50 is > 4.4 µM (inactive).

On to `Cn1c(=O)c2c(nc(NCCO)n2CCc2ccccc2)n(C)c1=O`, for which the CC50 was 9.41 µM (inactive).

On to `CCn1c(-c2ccc(N(C)C)cc2)nc2ccccc21`, for which the CC50 is 5.93 µM (inactive).

In the case of `Cc1cc(C(=O)OCC(=O)NCc2ccco2)c(C)n1-c1ccccc1`, the CC50 is 2.68 µM.

Regarding `Cc1ccc(Nc2cc(C)nn2-c2nc(C)cc(=O)[nH]2)cc1`, the CC50 was 1.31 µM.

Consider `COc1ccc(CNC(=O)c2cc3c(C)nc4ccccc4c3o2)c(OC)c1`, for which the CC50 is > 40 µM (inactive).

`COc1cc(C)c(C(C)C)cc1S(=O)(=O)n1cnc(C)c1`: the CC50 is 7.61 µM (inactive).

Turning to `COc1cc(C(=O)OCC(=O)c2cc(C)n(C)c2C)cc(OC)c1OC`, the CC50 is > 4.4 µM (inactive).

`COc1cccc(N2CCN(C(=O)c3[nH]c(C)c(C(C)=O)c3C)CC2)c1`: the CC50 was 1.74 µM.

On to `Cc1ccc(C)c(S(=O)(=O)Nc2ccc3scnc3c2)c1`, for which the CC50 is 3.08 µM.

`N=c1c2c(-c3ccccc3)c(-c3ccccc3)n(Cc3ccco3)c2ncn1Cc1ccco1`: the CC50 was 23.7 µM (inactive).

As to `CCN(CC)S(=O)(=O)c1cccc(C(=O)Nc2ccccc2)c1`, the CC50 is 18.3 µM (inactive).

`Cc1onc(-c2ccccc2)c1C(=O)Nc1sc2c(c1C#N)CCC2`: the CC50 was 15 µM (inactive).

`O=c1cc(CSc2nnc(-c3cccs3)n2Cc2ccccc2)nc2sc3ccccc3n12`: the CC50 was 4.96 µM.

Consider `CCn1ncc(C2=NOC(C(=O)NCc3ccc(OC)cc3)C2)c1C` (configuration not stated), for which the CC50 is 11.8 µM (inactive).

For `CC1CN(S(=O)(=O)c2ccc(NC(=O)c3cc(-c4ccccc4O)n[nH]3)cc2)CC(C)O1` (configuration not stated), the CC50 was > 13 µM (inactive).

Turning to `CCOC(=O)C1(Nc2nccs2)Sc2ccccc2NC1=O` (configuration not stated), the CC50 is 3.66 µM.

`CCCc1[nH]nc2c1C(c1ccc(Br)s1)C(C#N)=C(N)O2` (configuration not stated): the CC50 is > 13 µM (inactive).

On to `N#C/C(=C/c1ccc(N2CCCCCC2)o1)c1ccc(F)cc1`, for which the CC50 is > 13 µM (inactive).

With `COC(=O)c1ccc(C)c(NS(=O)(=O)c2ccc3c(c2)OCCO3)c1`, the CC50 was 0.504 µM.

For the compound `COc1ccccc1N1CCN(C(=O)C2c3ccccc3Oc3ccccc32)CC1`, the CC50 is 1.27 µM.

Consider `COc1ccc(-n2nnnc2-c2cccc(OC)c2)cc1`, for which the CC50 was 0.195 µM.

With `CCOC(=O)N1CCN(c2c(F)cc3[nH]c(=S)[nH]c3c2Br)CC1`, the CC50 was > 4.4 µM (inactive).

As for `OC1(c2cccc(C(F)(F)F)c2)CCN(c2ncnc3c2[nH]c2ccc(F)cc23)CC1`, the CC50 was 14.4 µM (inactive).

In the case of `COc1cc(C(=O)N2CCN(c3ncnc4sc(C)c(C)c34)CC2)cc(OC)c1OC`, the CC50 is 2.36 µM.

Take `O=C(C1CCN(S(=O)(=O)c2cccc3cccnc23)CC1)N1CCN(c2ccc(Cl)cc2)CC1`: the CC50 was 19.5 µM (inactive).

On to `CCNc1nc2c(c(=O)n(C)c(=O)n2C)n1Cc1ccc(Cl)cc1`, for which the CC50 is 4.09 µM.

Consider `COc1cc(NS(=O)(=O)c2ccc(C)cc2C)cc(OC)c1OC`, for which the CC50 was 9.46 µM (inactive).

For the compound `CCOc1ccccc1NC(=O)Cn1nnc(C(=O)NCc2ccco2)c1N`, the CC50 is 0.078 µM.

`COc1ccc(C2NC(=O)NC3=C2CCc2ccccc23)cc1` (configuration not stated): the CC50 was 4.81 µM.

Regarding `O=c1c2[nH]c3ccc(F)cc3c2ncn1CCCn1ccnc1`, the CC50 was 17.1 µM (inactive).

For `CCOC(=O)C1=C(N)n2c(s/c(=C\c3ccco3)c2=O)=C(C(=O)OCC)C1c1ccco1` (configuration not stated), the CC50 was 6.77 µM (inactive).

For `Cc1cc(NO)nc(-c2ccc(Br)cc2)n1`, the CC50 was > 40 µM (inactive).

Take `Cc1ccc2[nH]c(=O)c(CN(Cc3ccco3)C(=O)c3ccncc3)cc2c1`: the CC50 was 6.52 µM (inactive).

These data come from PubChem BioAssay AID464 (The Scripps Research Institute Molecular Screening Center, 2006).
